Tested on: 616215-338-R-J1-PDC complex spheroid viability
Assay: Anticancer human tumor 616215-338-R-J1-PDC patient-derived colon adenocarcinoma cell line growth inhibition [POLQ]
Details: for IC50: curve of first compound; for viability, T/C: stronger effect = lower value
Summary of the method: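 Three-cell-type spheroids modelling solid tumor plus stroma served as the readout system; POL inhibitors were tested individually and in combination, concentration ranges set by clinical Cmax where known.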

[1] = second compound 0.0316 µM, first compound 0.0316 µM
[2] = second compound 0.0316 µM, first compound 0.1 µM
[3] = second compound 0.0316 µM, first compound 0.316 µM
[4] = second compound 0.0316 µM, first compound 1 µM
[5] = second compound 0.0316 µM, first compound 3.16 µM
[6] = second compound 0.0316 µM, first compound 10 µM
[7] = second compound 0.1 µM, first compound 0.0316 µM
[8] = second compound 0.1 µM, first compound 0.1 µM
[9] = second compound 0.1 µM, first compound 0.316 µM
[10] = second compound 0.1 µM, first compound 1 µM
[11] = second compound 0.1 µM, first compound 3.16 µM
[12] = second compound 0.1 µM, first compound 10 µM
[13] = second compound 0.316 µM, first compound 0.0316 µM
[14] = second compound 0.316 µM, first compound 0.1 µM
[15] = second compound 0.316 µM, first compound 0.316 µM
[16] = second compound 0.316 µM, first compound 1 µM
[17] = second compound 0.316 µM, first compound 3.16 µM
[18] = second compound 0.316 µM, first compound 10 µM
[19] = second compound 1 µM, first compound 0.0316 µM
[20] = second compound 1 µM, first compound 0.1 µM
[21] = second compound 1 µM, first compound 0.316 µM
[22] = second compound 1 µM, first compound 1 µM
[23] = second compound 1 µM, first compound 3.16 µM
[24] = second compound 1 µM, first compound 10 µM
[25] = second compound 3.16 µM, first compound 0.0316 µM
[26] = second compound 3.16 µM, first compound 0.1 µM
[27] = second compound 3.16 µM, first compound 0.316 µM
[28] = second compound 3.16 µM, first compound 1 µM
[29] = second compound 3.16 µM, first compound 3.16 µM
[30] = second compound 3.16 µM, first compound 10 µM
[31] = second compound 10 µM, first compound 0.0316 µM
[32] = second compound 10 µM, first compound 0.1 µM
[33] = second compound 10 µM, first compound 0.316 µM
[34] = second compound 10 µM, first compound 1 µM
[35] = second compound 10 µM, first compound 3.16 µM
[36] = second compound 10 µM, first compound 10 µM
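Also: spheroids exposed to compounds for one week before readout.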
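For viability, T/C in this document: percent viability relative to DMSO vehicle wells taken as 100%.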

## COc1ccc([C@@H](O)c2cc(-c3ncnc4cc(N5CCOCC5)ccc34)c(F)cc2Cl)nn1 + Cc1cccc(N(C)C(=O)C2C(O)CCN2c2nc(C)cc(C(F)(F)F)c2C#N)c1
Second compound 0.0316 µM
  IC50: > 10 µM
Second compound 0.1 µM
  IC50: > 10 µM
Second compound 0.316 µM
  IC50: > 10 µM
Second compound 1 µM
  IC50: > 10 µM
Second compound 3.16 µM
  IC50: > 10 µM
Second compound 10 µM
  IC50: > 10 µM
[1]
  viability, T/C: 97.8%
[2]
  viability, T/C: 108%
[3]
  viability, T/C: 94.8%
[4]
  viability, T/C: 113%
[5]
  viability, T/C: 101%
[6]
  viability, T/C: 78.7%
[7]
  viability, T/C: 92.6%
[8]
  viability, T/C: 108%
[9]
  viability, T/C: 108%
[10]
  viability, T/C: 109%
[11]
  viability, T/C: 100%
[12]
  viability, T/C: 72.2%
[13]
  viability, T/C: 108%
[14]
  viability, T/C: 108%
[15]
  viability, T/C: 100%
[16]
  viability, T/C: 111%
[17]
  viability, T/C: 109%
[18]
  viability, T/C: 73.5%
[19]
  viability, T/C: 114%
[20]
  viability, T/C: 111%
[21]
  viability, T/C: 109%
[22]
  viability, T/C: 122%
[23]
  viability, T/C: 103%
[24]
  viability, T/C: 70.5%
[25]
  viability, T/C: 97.5%
[26]
  viability, T/C: 104%
[27]
  viability, T/C: 102%
[28]
  viability, T/C: 102%
[29]
  viability, T/C: 105%
[30]
  viability, T/C: 80.3%
[31]
  viability, T/C: 112%
[32]
  viability, T/C: 100%
[33]
  viability, T/C: 99.8%
[34]
  viability, T/C: 111%
[35]
  viability, T/C: 99.8%
[36]
  viability, T/C: 55.6%

## CCc1cc2c(N3CCc4c(cc(Cn5ccnc5)cc4-c4cn(C)nc4C(F)(F)F)C3=O)ccnc2c(OC)n1 + Cc1cccc(N(C)C(=O)C2C(O)CCN2c2nc(C)cc(C(F)(F)F)c2C#N)c1
Second compound 0.0316 µM
  IC50: 8.63 µM
Second compound 0.1 µM
  IC50: 6.35 µM
Second compound 0.316 µM
  IC50: 4.78 µM
Second compound 1 µM
  IC50: 6.68 µM
Second compound 3.16 µM
  IC50: 3.9 µM
Second compound 10 µM
  IC50: 5.8 µM
[1]
  viability, T/C: 98%
[2]
  viability, T/C: 102%
[3]
  viability, T/C: 86.4%
[4]
  viability, T/C: 69.4%
[5]
  viability, T/C: 63.9%
[6]
  viability, T/C: 46.8%
[7]
  viability, T/C: 107%
[8]
  viability, T/C: 106%
[9]
  viability, T/C: 83.2%
[10]
  viability, T/C: 84.2%
[11]
  viability, T/C: 52.7%
[12]
  viability, T/C: 46.3%
[13]
  viability, T/C: 106%
[14]
  viability, T/C: 102%
[15]
  viability, T/C: 94%
[16]
  viability, T/C: 70.8%
[17]
  viability, T/C: 54.5%
[18]
  viability, T/C: 43.8%
[19]
  viability, T/C: 113%
[20]
  viability, T/C: 104%
[21]
  viability, T/C: 88.4%
[22]
  viability, T/C: 74.1%
[23]
  viability, T/C: 58.8%
[24]
  viability, T/C: 45.2%
[25]
  viability, T/C: 97%
[26]
  viability, T/C: 94.8%
[27]
  viability, T/C: 95%
[28]
  viability, T/C: 63%
[29]
  viability, T/C: 59.3%
[30]
  viability, T/C: 41.3%
[31]
  viability, T/C: 98%
[32]
  viability, T/C: 88.6%
[33]
  viability, T/C: 90.9%
[34]
  viability, T/C: 61.7%
[35]
  viability, T/C: 60.7%
[36]
  viability, T/C: 43.5%

## Cn1ncnc1[C@H]1c2n[nH]c(=O)c3cc(F)cc(c23)N[C@@H]1c1ccc(F)cc1 + Nc1ccc(C#CCN(C(=O)Cc2ncc(C(F)(F)F)cc2C(F)(F)F)c2ccc(F)cc2)nn1
Second compound 0.0316 µM
  IC50: > 0.1 µM
Second compound 0.1 µM
  IC50: > 0.1 µM
Second compound 0.316 µM
  IC50: > 0.1 µM
Second compound 1 µM
  IC50: > 0.1 µM
Second compound 3.16 µM
  IC50: > 0.1 µM
Second compound 10 µM
  IC50: > 0.1 µM
Second compound 0.0316 µM, first compound 0.000316 µM
  viability, T/C: 104%
Second compound 0.0316 µM, first compound 0.001 µM
  viability, T/C: 106%
Second compound 0.0316 µM, first compound 0.00316 µM
  viability, T/C: 99.7%
Second compound 0.0316 µM, first compound 0.01 µM
  viability, T/C: 95.1%
[1]
  viability, T/C: 88.5%
[2]
  viability, T/C: 86.7%
Second compound 0.1 µM, first compound 0.000316 µM
  viability, T/C: 112%
Second compound 0.1 µM, first compound 0.001 µM
  viability, T/C: 91.6%
Second compound 0.1 µM, first compound 0.00316 µM
  viability, T/C: 107%
Second compound 0.1 µM, first compound 0.01 µM
  viability, T/C: 113%
[7]
  viability, T/C: 108%
[8]
  viability, T/C: 77.6%
Second compound 0.316 µM, first compound 0.000316 µM
  viability, T/C: 106%
Second compound 0.316 µM, first compound 0.001 µM
  viability, T/C: 97.3%
Second compound 0.316 µM, first compound 0.00316 µM
  viability, T/C: 111%
Second compound 0.316 µM, first compound 0.01 µM
  viability, T/C: 97.2%
[13]
  viability, T/C: 104%
[14]
  viability, T/C: 83%
Second compound 1 µM, first compound 0.000316 µM
  viability, T/C: 108%
Second compound 1 µM, first compound 0.001 µM
  viability, T/C: 99.9%
Second compound 1 µM, first compound 0.00316 µM
  viability, T/C: 110%
Second compound 1 µM, first compound 0.01 µM
  viability, T/C: 93.9%
[19]
  viability, T/C: 91.2%
[20]
  viability, T/C: 77.6%
Second compound 3.16 µM, first compound 0.000316 µM
  viability, T/C: 99.4%
Second compound 3.16 µM, first compound 0.001 µM
  viability, T/C: 98%
Second compound 3.16 µM, first compound 0.00316 µM
  viability, T/C: 103%
Second compound 3.16 µM, first compound 0.01 µM
  viability, T/C: 90.5%
[25]
  viability, T/C: 99.3%
[26]
  viability, T/C: 95.7%
Second compound 10 µM, first compound 0.000316 µM
  viability, T/C: 94.8%
Second compound 10 µM, first compound 0.001 µM
  viability, T/C: 98.7%
Second compound 10 µM, first compound 0.00316 µM
  viability, T/C: 101%
Second compound 10 µM, first compound 0.01 µM
  viability, T/C: 90.9%
[31]
  viability, T/C: 89.9%
[32]
  viability, T/C: 65.1%
